According to article PMC9606729 (RSC Advances, 2022):
Like-named read-outs stand apart in the source and are kept apart here.

How the values were obtained:
HeLa cells [1] = details: curcumin, cited from earlier work
A549 cells [2] = details: curcumin, cited from earlier work
HeLa cells [3] = assay: MTT cell viability assay (photocytotoxicity), HeLa; format: cell-based, human; details: for PI (Phototoxic Index) HeLa: ratio between IC50 in the dark and visible light exposure
Experimental: (§1) The photocytotoxicity of the complexes was assessed using MTT assay based on the ability of mitochondrial dehydrogenases in the viable cells to cleave the tetrazolium rings of MTT and forming dark blue membrane impermeable crystals of formazan that were measured at 570 nm giving an estimate of the number of viable cells.[40] Approximately, 1 × 10^4 cells of HeLa and A549 were plated in a 96-well culture plate in DMEM supplemented with 10% fetal bovine serum and cultured overnight. Different concentrations of the complexes were added to the cells, and incubation was continued for 4 h in dark. After incubation, the medium was replaced with 50 mM phosphate buffer, pH 7.4, containing 150 mM NaCl (PBS) and photo-irradiation was done for 1 h in visible light of 400–700 nm using Luzchem Photoreactor (Model LZC-1, Ontario, Canada; light fluence rate: 2.4 mW cm^−2; light dose = 10 J cm^−2). PBS was replaced with 10% DMEM after irradiation. Incubation was continued for a further period of 19 h in dark for light exposed cells and for 20 h in dark for light unexposed cells followed by addition of 25 μL of 4 mg mL^−1 of MTT to each well and incubated for an additional 3 h. The culture medium was discarded, and a 100 μL volume of DMSO was added to dissolve the formazan crystals. The absorbance at 570 nm was determined using an ELISA microplate reader (BioRad, Hercules, CA, USA). The cytotoxicity of the test compounds was measured as the percentage ratio of the absorbance of the treated cells over the untreated controls. The IC50 values were determined by nonlinear regression analysis (Graphpad Prism, version 7).

A549 cells [4] = assay: MTT cell viability assay (photocytotoxicity), A549; format: cell-based, human; details: for PI (Phototoxic Index) A549: ratio between IC50 in the dark and visible light exposure
Experimental: as §1

[5] = Partition coefficient n-octanol/water, modified shake-flask method; format: physicochemical; details: average of three concentrations
Experimental: A modified shake-flask method was used to determine the partition coefficients of the complexes 1–6 between n-octanol and water.[41] Briefly, 5 ml solution of a complex in octanol-saturated water was shaken with 5 ml of water-saturated n-octanol in a falcon tube for ∼30 min using a vortex. The biphasic mixture was centrifuged for ∼5 min at 4000 rpm and the layers were separated. The concentration of the complexes 1–6 in each layer was measured by UV-visible spectroscopy. The partition coefficients of 1–6 were determined at three different concentrations and averaged out.

HeLa cells [6] = assay: Annexin-V/FITC/PI assay by flow cytometry; format: cell-based, human; details: 5 μM
Experimental: The mechanism of light-assisted cell death induced by the complexes was studied by annexin-V/FITC/PI assay using complexes 1 and 3 in 1% DMSO/DMEM.[44] ∼4 × 10^5 HeLa cells seeded in six-well plates were cultured for 24 h. The cells were then incubated with 3 (5 μM) for 4 h in the dark and then exposed to visible light (λ = 400–700 nm, light dose = 10 J cm^−2) in phenol red free media for 1 h. The corresponding dark control experiment was carried out. Cells were incubated for another 19 h and 20 h respectively for the light exposed and unexposed plates in DMEM/10% fetal bovine serum (FBS) buffer in the dark. The medium was discarded, cells were trypsinized and re-suspended in 140 μL Annexin V binding buffer (100 mM HEPES/NaOH, pH 7.4 containing 140 mM NaCl and 2.5 mM CaCl2). Annexin-V/FITC ([…]) and propidium iodide (PI; […]) were added to the cell suspensions, incubated for 5 min and readings were taken using a flow cytometer.

[7] = molecular target: T1, human serum albumin (HSA) (Homo sapiens, UniProt P02768); assay: Protein binding by tryptophan fluorescence quenching; details: fluorescence lifetime of HSA with 10 and 20 μM complex
T1 construct: purchased Sigma (U.S.A.)
T1 sequence (P02768 25-609): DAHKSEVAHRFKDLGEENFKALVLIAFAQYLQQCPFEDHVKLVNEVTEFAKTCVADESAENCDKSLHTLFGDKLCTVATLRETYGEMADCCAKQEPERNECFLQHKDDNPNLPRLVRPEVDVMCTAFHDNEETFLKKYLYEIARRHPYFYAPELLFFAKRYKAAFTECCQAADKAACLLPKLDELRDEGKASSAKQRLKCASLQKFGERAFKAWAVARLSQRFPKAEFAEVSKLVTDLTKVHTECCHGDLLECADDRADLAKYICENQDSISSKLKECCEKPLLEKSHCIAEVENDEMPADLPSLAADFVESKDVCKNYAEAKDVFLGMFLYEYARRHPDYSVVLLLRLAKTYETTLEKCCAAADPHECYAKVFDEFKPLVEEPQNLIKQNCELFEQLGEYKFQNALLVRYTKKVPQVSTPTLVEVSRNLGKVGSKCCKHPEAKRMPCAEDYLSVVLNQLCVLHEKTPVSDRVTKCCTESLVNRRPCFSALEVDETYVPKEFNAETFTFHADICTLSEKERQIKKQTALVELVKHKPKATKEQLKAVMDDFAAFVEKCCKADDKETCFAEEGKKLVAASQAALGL
Experimental: The protein binding study was carried out by tryptophan fluorescence quenching experiments using human serum albumin (HSA, 2 μM) in Tris–HCl buffer (pH 7.2). Quenching of the emission intensity of tryptophan residue (Trp 214) of HSA at 320 nm (excitation wavelength at 280 nm) was monitored using complexes 1–6 as quenchers with increasing concentration.[38]I0/I vs. [complex] plots were constructed. Linear fit of the data using the equation I0/I = 1 + K[Q], where I0 and I are the emission intensity of HSA in the absence of quencher and emission intensity of HSA in the presence of the quencher of concentration [Q] gave the binding constant KHSA values using OriginPro 8. […] Average fluorescence lifetime of pure HSA (2 μM) was measured and compared with its fluorescence lifetime in presence of two different concentrations (10 and 20 μM) of complex 3 using a time-resolved fluorimeter.[39]

HeLa cells [8] = assay: Cellular uptake by flow cytometry; format: cell-based, human; details: 10 μM, 4 h in dark, fluorescence vs cells' auto fluorescence
Experimental: Uptake of the complexes 1–3 in HeLa cells were studied by flow cytometric method reported in literature.[42] HeLa cells were treated with 1–3 (10 μM) and incubated for 4 h in dark. The cells were harvested by trypsinization and a suspension in PBS was prepared. The uptake of the green fluorescent complexes in HeLa cells were evaluated by flow cytometry.

HeLa cells [9] = assay: DCFDA assay for detection of ROS; format: cell-based, human; details: 5 μM
Experimental: The generation of cellular reactive oxygen species (ROS) was assessed using DCFDA assay.[43] Approximately ∼1 × 10^6 HeLa cells were incubated with complex 3 (5 μM) for 4 h which is followed by photo-irradiation (400–700 nm) for 1 h in PBS. The cells were then harvested by trypsinization and a single cell suspension in PBS was made. After that the cells were treated with DCFDA solution (10 μM, in DMSO) in dark at room temperature for 5 min. The distribution of DCFDA stained HeLa cells was determined by flow cytometry in the FL-1 channel.

[10] = 4 h treatment followed by 20 h incubation in dark, read-out: IC50 HeLa Dark
[11] = 4 h treatment in dark, visible light (400–700 nm, 10 J cm^−2) 1 h, then 19 h in dark, read-out: IC50 HeLa Light
[12] = 4 h treatment followed by 20 h incubation in dark, read-out: IC50 A549 Dark
[13] = 4 h treatment in dark, visible light (400–700 nm, 10 J cm^−2) 1 h, then 19 h in dark, read-out: IC50 A549 Light
[14] = visible light (400–700 nm, 10 J cm^−2)

SMILES	IC50 (HeLa cells [1]; read-out: IC50 HeLa Dark)	IC50 (HeLa cells [1]; read-out: IC50 HeLa Light)	IC50 (A549 cells [2]; read-out: IC50 A549 Dark)	IC50 (A549 cells [2]; read-out: IC50 A549 Light)	IC50 (HeLa cells [3]; [10])	IC50 (HeLa cells [3]; [11])	PI (Phototoxic Index) HeLa (HeLa cells [3])	IC50 (A549 cells [4]; [12])	IC50 (A549 cells [4]; [13])	PI (Phototoxic Index) A549 (A549 cells [4])	log Po/w [5]	induction of apoptosis (in words) (HeLa cells [6]; visible light (400–700 nm, 10 J cm^−2) vs dark)	HSA fluorescence quenching mechanism [7]	population of cells in early apoptotic stage (HeLa cells [6]; in dark)	population of cells in late apoptotic stage (HeLa cells [6]; in dark)	population of cells in early apoptotic stage (HeLa cells [6]; [14])	population of cells in late apoptotic stage (HeLa cells [6]; [14])	uptake in HeLa cells (HeLa cells [8])	ROS generation (DCF emission) (HeLa cells [9]; 4 h, photo-irradiation (400–700 nm) 1 h)	ROS generation (DCF emission) (HeLa cells [9]; compound treated cells kept in dark)
COc1cc(/C=C/C(=O)CC(=O)/C=C/c2ccc(O)c(OC)c2)ccc1O [Curcumin, (1E,6E)-1,7-bis(4-hydroxy-3-methoxyphenyl)-1,6-heptadiene-3,5-dione]	85.4 ± 0.6 µM	8.2 ± 0.2 µM	61.4 ± 0.4 µM	19 ± 0.1 µM																
CC(=O)C=C(C)[O-].[Cu+2].[O-][Cl+3]([O-])([O-])[O-].c1ccc2nc3c4cccnc4c4ncccc4c3nc2c1 [Complex 6]					> 100 µM	36.9 ± 2.8 µM	>2.7	> 100 µM	39.8 ± 3.3 µM	>2.5										
COc1cc(C=CC(=O)C=C([O-])C=Cc2ccc(O)c(OC)c2)ccc1O.[Cu+2].[O-][Cl+3]([O-])([O-])[O-].c1cnc2c(c1)c1nccnc1c1cccnc12 [Complex 2, [Cu(Cur)(dpq)(ClO4)]]					61.9 ± 3.9 µM	4.7 ± 0.8 µM	13.2	65.6 ± 4.4 µM	5.7 ± 0.7 µM	11.5	0.345									
CC(=O)C=C(C)[O-].[Cu+2].[O-][Cl+3]([O-])([O-])[O-].c1cnc2c(c1)ccc1cccnc12 [Complex 4, [Cu(acac)(phen)(ClO4)]]					> 100 µM	41 ± 3.8 µM		> 100 µM	48.8 ± 4.2 µM											
COc1cc(/C=C/C(=O)C=C([O-])/C=C/c2ccc(O)c(OC)c2)ccc1O.[Cu+2].[O-][Cl+3]([O-])([O-])[O-].c1cnc2c(c1)ccc1cccnc12 [Complex 1, [Cu(Cur)(phen)(ClO4)]]					56.4 ± 3.5 µM	6.8 ± 0.9 µM	8.3	85.3 ± 5.4 µM	8.6 ± 0.8 µM	9.9	−0.525	visible light assisted induction of apoptosis in HeLa cells, however not up to the extent of 3								
COc1cc(/C=C/C(=O)C=C([O-])/C=C/c2ccc(O)c(OC)c2)ccc1O.[Cu+2].[O-][Cl+3]([O-])([O-])[O-].c1ccc2nc3c4cccnc4c4ncccc4c3nc2c1 [Complex 3, [Cu(Cur)(dppz)(ClO4)]]					58.9 ± 3.7 µM	3.7 ± 0.5 µM	15.9	64.9 ± 4.3 µM	4.3 ± 0.4 µM	15.1	0.945		static in nature	~4%	~8%	~50%	~15%	highest uptake	significant increase in emission by DCF	did not show any significant ROS formation
CC(=O)C=C(C)[O-].[Cu+2].[O-][Cl+3]([O-])([O-])[O-].c1cnc2c(c1)c1nccnc1c1cccnc12 [Complex 5, [Cu(acac)(dpq)(ClO4)]]					> 100 µM	46.8 ± 3.9 µM	>2.1	> 100 µM	45.1 ± 3.5 µM	>2.2	−0.180									
